Assay [1] relates to GTPase KRas (Homo sapiens), P01116 [G12C]. The assay is described as follows: Binding affinity to hexa-histidine-tagged recombinant human K-Ras isoform 2 G12C mutant (1 to 169 residues) expressed in Escherichia coli BL21 (DE3) at 10 uM after 24 hrs.
The target of assay [2] is Tyrosine-protein kinase BTK (Homo sapiens, UniProt Q06187). The experiment in a line: Inhibition of BTK (unknown origin).

Turning to `C=CC(=O)N1CCN(C(=O)CNc2cc(Cl)c(Cl)cc2OC)CC1`, the Activity in assay [1] turned out to be 28%.
For `C=CC(=O)N1CCN(C(=O)CNc2cc(C(F)(F)F)c(Cl)cc2OC)CC1`, the Activity in assay [1] is 14%.
With `Nc1ncnc2c1c(-c1ccc(Oc3ccccc3)cc1)nn2C1CCCN(C(=O)/C=C/Cl)C1` (configuration not stated), in assay [2], the IC50 (usually the concentration at which inhibition is half-maximal) turned out to be 0.52 nM.
As to `C=CS(=O)(=O)NC1CCN(C(=O)CNc2cc(Cl)c(Cl)cc2O)CC1`, the Activity in assay [1] worked out at 87%.
As for `C=CS(=O)(=O)NC1CCN(C(=O)CNc2c(Cl)cc(Cl)c3c2OC(C)(C)O3)CC1`, in assay [1], the Activity stood at 50%.
Take `C=CC(=O)N1CCN(C(=O)CNc2cc(I)c(Cl)cc2O)CC1`: the Activity in assay [1] turned out to be 100%.
On to `C=CS(=O)(=O)NC1CCN(C(=O)CNc2cc(I)c(Cl)cc2OC)CC1`, for which the Activity in assay [1] amounted to 100%.
